≈ marks a conversion by molar mass, not a printed value. Like-named read-outs stand apart in the source and are kept apart here.
Legend:
[1] = in vivo; cited from earlier work
[2] = in vitro; cited from earlier work
[3] = Solubility of FK506 in NIC solution; format: physicochemical
[4] = In vitro percutaneous permeation, vertical Franz diffusion cell; format: in vitro ADME, Sprague Dawley rats; conditions: 20% NIC solution without FK506; data not shown

Row | Compound | Immunosuppressant activity relative to cyclosporine A [1] | Immunosuppressant activity relative to cyclosporine A [2] | Solubility in 30% (w/v) NIC solution relative to that in water ([3]; 30% (w/v) NIC vs water) [fold] | solubility at 3 days ([3]; water (0% (w/v) NIC), 37 °C, water, thermodynamic from solid) [µg/mL] | Permeation of NIC into skin [4]
1 | C=CC[C@@H]1/C=C(\C)C[C@H](C)C[C@H](OC)[C@H]2O[C@@](O)(C(=O)C(=O)N3CCCC[C@H]3C(=O)O[C@H](/C(C)=C/[C@@H]3CC[C@@H](O)[C@H](OC)C3)[C@H](C)[C@@H](O)CC1=O)[C@H](C)C[C@@H]2OC [FK506, Tacrolimus] | 10–20 fold | 30–100 fold | 532 | 0.69 ± 0.24 (≈ 0.858 µM) | –
2 | NC(=O)c1cccnc1 [NIC, nicotinamide] | – | – | – | – | easily permeate into skin
